Experimental findings from patent US20250186391A1, “ORAL COMPLEMENT FACTOR D INHIBITORS” (BioCryst Pharmaceuticals, Inc., priority 2019, published 2025) are described below.

Factor D, sequence (P00746 26-253): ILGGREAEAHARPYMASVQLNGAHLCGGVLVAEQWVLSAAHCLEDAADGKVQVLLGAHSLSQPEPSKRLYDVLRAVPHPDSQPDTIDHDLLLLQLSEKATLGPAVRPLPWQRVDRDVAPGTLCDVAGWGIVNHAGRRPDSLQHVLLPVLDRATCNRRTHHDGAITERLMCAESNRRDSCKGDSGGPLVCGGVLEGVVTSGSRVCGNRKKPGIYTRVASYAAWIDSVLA

This assay concerns the target Factor D (Homo sapiens (Human), UniProt P00746). Briefly: Factor D esterolytic assay. The conditions noted are these: Z-Lys-SBzl substrate, 100 mM HEPES, 500 mM NaCl, pH 7.5, 10% DMSO; tested a minimum of three times; read-out: Measured Ki (IC50) Value for Compounds: IC50. Format: biochemical. As to the method:
The IC50 value of a compound (i.e., the concentration of the compound that inhibits 50% of the enzymatic activity) was calculated according to the procedure reported in U.S. Pat. No. 6,653,340 B1, e.g., column 74 (incorporated by reference).
Specifically, the compounds were dissolved in a stock solution of DMSO at 10.0 or 100 mM. A portion of this stock solution was added to assay buffer in a final volume of 50 μL. Controls included buffer alone and enzyme solutions to which DMSO was added. Substrate was added to the reaction wells immediately or after incubation at room temperature. The reaction rates were measured spectrophotometrically by the generation of product at 405 nm for 600 sec. Background absorbance at 690 nm was measured and subtracted from the absorbance at 405 nm for each well.
The reaction rate for enzyme alone was compared to the rate of enzyme in the presence of inhibitor and the percent inhibition was calculated as shown below: […]
An established esterolytic assay for the measurement of Factor D activity and inhibition of Factor D activity was used (Kam, C. M.; McRae, B. J.; Harper, J. W.; Niemann, M. A.; Volanakis, J. E.; Powers, J. C. Human complement proteins D, C2, and B Active site mapping with peptide thioester substrates. J Biol. Chem. 1987, 262, 3444-3451). For this assay Z-Lys-SBzl, 1.29 mM (Kim, S.; Narayana, S. V. L; Volanakis, J. E. Mutational analysis of the substrate binding site of human complement Factor D. Biochemistry. 1994, 33, 14393-14399.) was used as the substrate for Factor D ([…]). Hydrolysis of this compound by Factor D liberated a free sulfhydryl group which is then reacted with 5,5′-dithiobis(2nitrobenzoic acid) producing an intense yellow color (Habeeb, A. F. S. A. Reaction of protein sulfhydryl groups with Ellman's Reagent. Methods in Enzymol. 1976, 25, 457-464.). The assays were performed in 96 well microtiter plates and rates of hydrolysis were monitored at 405 nm on a Biotek Synergy H1 plate reader. Hydrolysis rates were reported as change in mOD/min. The assay was conducted in 100 mM HEPES, 500 mM NaCl, pH 7.5 containing 10% DMSO in a final volume of 50 μL per well.
An IC50, a compound concentration which inhibits 50% of the enzymatic activity, was calculated. Compounds in the examples were tested a minimum of three times.
For `Cc1cc2occ(COc3ccccc3CC(=O)O)c2cc1-c1cccc(CN)c1` [Compound 70f, 2-(2-((5-(3-(aminomethyl)phenyl)-6-methylbenzofuran-3-yl)methoxy)phenyl)acetic acid], the IC50 was 1000 to 10000 nM.
Regarding `CC(C)n1cc(-c2cc(-c3cccc(CN)c3)cc3c(COc4ccccc4CC(=O)O)coc23)cn1` [Compound 130c, 2-(2-((5-(3-(aminomethyl)phenyl)-7-(1-isopropyl-1H-pyrazol-4-yl)benzofuran-3-yl)methoxy)phenyl)acetic acid], the half-inhibitory concentration (IC50) is under 1000 nM.
As to `NCc1cccc(-c2cc(C(F)(F)F)c3occ(COc4ccccc4CC(=O)O)c3c2)c1` [Compound 113g, 2-(2-((5-(3-(aminomethyl)phenyl)-7-(trifluoromethyl)benzofuran-3-yl)methoxy)phenyl)acetic acid], the IC50 was under 1000 nM.
For `COc1ccc(CC(=O)O)c(OCc2c(C3CC3)oc3ccc(-c4cccc(CN)c4)cc23)c1` [Compound 247c, 2-(2-((5-(3-(aminomethyl)phenyl)-2-cyclopropylbenzofuran-3-yl)methoxy)-4-methoxyphenyl)acetic acid], the concentration for half-maximal inhibition (IC50) was under 1000 nM.
Regarding `CC(C)n1nc(COc2ccccc2C(=O)O)c2cc(-c3cccc(CN)c3)ccc21` [Compound 299d, 2-((5-(3-(aminomethyl)phenyl)-1-isopropyl-1H-indazol-3-yl)methoxy)benzoic acid], the IC50 was under 1000 nM.
As to `CC(C)n1nc(COc2ccccc2CC(=O)O)c2cc(-c3ccnc(CN)c3F)ccc21` [Compound 271c, 2-(2-((5-(2-(aminomethyl)-3-fluoropyridin-4-yl)-1-isopropyl-1H-indazol-3-yl)methoxy)phenyl)acetic acid], the IC50 was under 1000 nM.
Then `NCc1cccc(-c2ccc3oc(C4CC4)c(COc4ccccc4CC(=O)O)c3c2)c1` [Compound 133f, 2-(2-((5-(3-(aminomethyl)phenyl)-2-cyclopropylbenzofuran-3-yl)methoxy)phenyl)acetic acid], with under 1000 nM; and `NCc1cccc(-c2ccc3occ(COc4c(F)cccc4CC(=O)O)c3c2)c1F` [Compound 46b, 2-(2-((5-(3-(aminomethyl)-2-fluorophenyl)benzofuran-3-yl)methoxy)-3-fluorophenyl)acetic acid], with under 1000 nM; and `COc1ccc(CC(=O)O)c(OCc2c(C(=O)O)oc3ccc(-c4cccc(CN)c4)cc23)c1` [Compound 61d, 5-(3-(aminomethyl)phenyl)-3-((2-(carboxymethyl)-5-methoxyphenoxy)methyl)benzofuran-2-carboxylic acid], with under 1000 nM.
With `NCc1cccc(-c2cc(NCc3cccnc3)c3occ(COc4ccccc4CC(=O)O)c3c2)c1` [Compound 187d, 2-(2-((5-(3-(aminomethyl)phenyl)-7-((pyridin-3-ylmethyl)amino)benzofuran-3-yl)methoxy)phenyl)acetic acid] the figure was under 1000 nM; with `NCc1cccc(-c2ccc3nnc(COc4ccccc4CC(=O)O)n3c2)c1` [Compound 212d, 2-(2-((6-(3-(aminomethyl)phenyl)-[1,2,4]triazolo[4,3-a]pyridin-3-yl)methoxy)phenyl)acetic acid], under 1000 nM.
Consider `CC(C)n1nc(C(=O)Nc2ccccc2CC(=O)O)c2cc(-c3cccc(CN)c3)ccc21` [Compound 293c, 2-(2-(5-(3-(aminomethyl)phenyl)-1-isopropyl-1H-indazole-3-carboxamido)phenyl)acetic acid], for which the IC50 was under 1000 nM.
For the molecule `CC(C)(C)OC(=O)Nc1ccc(CC(=O)O)c(OCc2coc3ccc(-c4cccc(CN)c4)cc23)c1` [Compound 83h, 2-(2-((5-(3-(aminomethyl)phenyl)benzofuran-3-yl)methoxy)-4-((tert-butoxycarbonyl)amino)phenyl)acetic acid], the IC50 was under 1000 nM.
In the case of `COc1ccc(CC(=O)O)c(OCc2c(C)oc3ccc(-c4cccc(CN)c4O)cc23)c1` [Compound 244d, 2-(2-((5-(3-(aminomethyl)-2-hydroxyphenyl)-2-methylbenzofuran-3-yl)methoxy)-4-methoxyphenyl)acetic acid], the IC50 was under 1000 nM.
For `COc1ccc(CC(=O)O)c(OCc2c(C)oc3ccc(-c4ccnc(CN)c4F)cc23)c1` [Compound 281d, 2-(2-((5-(2-(aminomethyl)-3-fluoropyridin-4-yl)-2-methylbenzofuran-3-yl)methoxy)-4-methoxyphenyl)acetic acid], the IC50 is under 1000 nM.
Consider `CN(C)Cc1cc(-c2cccc(CN)c2)cc2c(COc3ccccc3CC(=O)O)coc12` [Compound 82e, 2-(2-((5-(3-(aminomethyl)phenyl)-7-((dimethylamino)methyl)benzofuran-3-yl)methoxy)phenyl)acetic acid], for which the IC50 is under 1000 nM.
Then `CC(C)n1nc(COc2ccccc2CC(=O)O)c2cc(-c3cccc([C@H](N)CO)c3)ccc21` [Compound 267b, (S)-2-(2-((5-(3-(1-amino-2-hydroxyethyl)phenyl)-1-isopropyl-1H-indazol-3-yl)methoxy)phenyl)acetic acid], with under 1000 nM; and `COc1c(-c2ccc3c(c2)c(COc2ccccc2CC(=O)O)nn3C2CCC2)ccnc1CN` [Compound 328d, 2-(2-((5-(2-(aminomethyl)-3-methoxypyridin-4-yl)-1-cyclobutyl-1H-indazol-3-yl)methoxy)phenyl)acetic acid], with over 10000 nM; and `C[C@H](N)c1cccc(-c2ccc3occ(COc4ccccc4CC(=O)O)c3c2)c1` [Compound 54c, (S)-2-(2-((5-(3-(1-aminoethyl)phenyl)benzofuran-3-yl)methoxy)phenyl)acetic acid], with under 1000 nM.
`COc1ccc(CC(=O)O)c(OCc2c3cc(-c4cccc(CN)c4)ccc3nn2C)c1` [Compound 210c, 2-(2-((5-(3-(aminomethyl)phenyl)-2-methyl-2H-indazol-3-yl)methoxy)-4-methoxyphenyl)acetic acid]: the IC50 is under 1000 nM.
Regarding `NCc1cccc(-c2ccc3[nH]nc(COc4ccccc4CC(=O)O)c3c2)c1` [Compound 81a, 2-(2-((5-(3-(aminomethyl)phenyl)-1H-indazol-3-yl)methoxy)phenyl)acetic acid], the IC50 is under 1000 nM.
Then `COc1cc(-c2cccc(CN)c2)cc2c(COc3cc(C)ccc3CC(=O)O)coc12` [Compound 252c, 2-(2-((5-(3-(aminomethyl)phenyl)-7-methoxybenzofuran-3-yl)methoxy)-4-methylphenyl)acetic acid], with under 1000 nM.
With `CCc1ccc(CC(=O)O)c(OCc2coc3ccc(-c4cccc(CN)c4)cc23)c1` [Compound 49b, 2-(2-((5-(3-(aminomethyl)phenyl)benzofuran-3-yl)methoxy)-4-ethylphenyl)acetic acid], the IC50 was under 1000 nM.
For the molecule `CC(C)n1nc(C(=O)Nc2ccccc2C(=O)O)c2cc(-c3cccc(CN)c3)ccc21` [Compound 314e, 2-(5-(3-(aminomethyl)phenyl)-1-isopropyl-1H-indazole-3-carboxamido)benzoic acid], the IC50 was over 10000 nM.
With `NCc1cccc(-c2ccc3c(c2)c(COc2ccccc2CC(=O)O)nn3-c2ccncc2)c1` [Compound 265c, 2-(2-((5-(3-(aminomethyl)phenyl)-1-(pyridin-4-yl)-1H-indazol-3-yl)methoxy)phenyl)acetic acid] the figure was under 1000 nM; with `NCc1cccc(-c2cc(CN3CCNCC3)c3occ(COc4ccccc4CC(=O)O)c3c2)c1` [Compound 122b, 2-(2-((5-(3-(aminomethyl)phenyl)-7-(piperazin-1-ylmethyl)benzofuran-3-yl)methoxy)phenyl)acetic acid], under 1000 nM; with `CC(C)n1nc(COc2ccccc2CC(=O)O)c2cc(-c3cc(CN)cc(C4CCN(C)CC4)c3)ccc21` [Compound 333f, 2-(2-((5-(3-(aminomethyl)-5-(1-methylpiperidin-4-yl)phenyl)-1-isopropyl-1H-indazol-3-yl)methoxy)phenyl)acetic acid], over 10000 nM.
On to `CC(C)Nc1cc(-c2cccc(CN)c2)cc2c(COc3ccccc3CC(=O)O)coc12` [Compound 148d, 2-(2-((5-(3-(aminomethyl)phenyl)-7-(isopropylamino)benzofuran-3-yl)methoxy)phenyl)acetic acid], for which the IC50 is under 1000 nM.
For the molecule `CC(C)n1nc(COc2ccccc2CC(=O)O)c2cc(-c3cccc(CN)c3O)ccc21` [Compound 318f, 2-(2-((5-(3-(aminomethyl)-2-hydroxyphenyl)-1-isopropyl-1H-indazol-3-yl)methoxy)phenyl)acetic acid], the IC50 is under 1000 nM.

What is called IC50 is the concentration that inhibits the measured activity by half.
